Results taken from article PMC5218480 (PLoS ONE, 2017).

Test system: MV-4-11 cells
Assay: Gene expression microarray analysis (Affymetrix PrimeView) and GSEA
Type: cell-based, human
Design: RFU PODN (11730768_x_at) / Fold change /veh PODN (11730768_x_at) / RFU LINC00158 (11744669_a_at) / Fold change /veh LINC00158 (11744669_a_at) / RFU DUSP10 (11751237_a_at) / Fold change /veh DUSP10 (11751237_a_at) / RFU ID3 (11757404_x_at) / Fold change /veh ID3 (11757404_x_at) / RFU PLEKHG5 (11737974_s_at) / Fold change /veh PLEKHG5 (11737974_s_at) / RFU LRRC4B (11730491_at) / Fold change /veh LRRC4B (11730491_at) / RFU GIMAP4 (11747438_a_at) / Fold change /veh GIMAP4 (11747438_a_at) / RFU KRT8 (11758183_x_at) / Fold change /veh KRT8 (11758183_x_at) / RFU CNN1 (11734310_a_at) / Fold change /veh CNN1 (11734310_a_at) / RFU VPS37D (11726825_at) / Fold change /veh VPS37D (11726825_at) / RFU C10orf10 (11716522_x_at) / Fold change /veh C10orf10 (11716522_x_at) / RFU KIR2DL2 /// KIR2DL4 /// KIR2DL5A /// KIR2DL5B /// KIR2DS1 /// KIR2DS2 /// KIR2DS3 /// KIR2DS4 /// KIR3DL3 /// KIR3DL3 /// KIR3DS1 (11738374_at) / Fold change /veh KIR2DL2 /// KIR2DL4 /// KIR2DL5A /// KIR2DL5B /// KIR2DS1 /// KIR2DS2 /// KIR2DS3 /// KIR2DS4 /// KIR3DL3 /// KIR3DL3 /// KIR3DS1 (11738374_at) / RFU C1QL1 (11718748_at) / Fold change /veh C1QL1 (11718748_at) / RFU TMPRSS4 (11747572_a_at) / Fold change /veh TMPRSS4 (11747572_a_at) / RFU HAMP (11756126_x_at) / Fold change /veh HAMP (11756126_x_at) / RFU RNFT2 (11725882_a_at) / Fold change /veh RNFT2 (11725882_a_at) / RFU NR4A2 (11747474_a_at) / Fold change /veh NR4A2 (11747474_a_at) / RFU ABCC12 (11746883_a_at) / Fold change /veh ABCC12 (11746883_a_at) / RFU TMEM136 (11760407_x_at) / Fold change /veh TMEM136 (11760407_x_at) / RFU CLDN22 /// WWC2 (11732394_at) / Fold change /veh CLDN22 /// WWC2 (11732394_at) / RFU HLA-DPB1 (11760878_x_at) / Fold change /veh HLA-DPB1 (11760878_x_at) / RFU SPINT1 (11716480_a_at) / Fold change /veh SPINT1 (11716480_a_at) / RFU GAP43 (11754022_s_at) / Fold change /veh GAP43 (11754022_s_at) / RFU A4GNT (11735810_at) / Fold change /veh A4GNT (11735810_at) / RFU PRB3 (11715151_x_at) / Fold change /veh PRB3 (11715151_x_at) / RFU TUBB4B (11761932_at) / Fold change /veh TUBB4B (11761932_at) / RFU CAPN14 (11732068_a_at) / Fold change /veh CAPN14 (11732068_a_at) / RFU TMCC2 (11721928_a_at) / Fold change /veh TMCC2 (11721928_a_at) / RFU IRGQ (11745062_a_at) / Fold change /veh IRGQ (11745062_a_at) / RFU FAM174B (11720279_a_at) / Fold change /veh FAM174B (11720279_a_at) / RFU TMPRSS4 (11748680_a_at) / Fold change /veh TMPRSS4 (11748680_a_at) / RFU FAM212B (11763350_a_at) / Fold change /veh FAM212B (11763350_a_at) / RFU PLEKHG5 (11743358_a_at) / Fold change /veh PLEKHG5 (11743358_a_at) / RFU ZSCAN30 (11745921_a_at) / Fold change /veh ZSCAN30 (11745921_a_at) / RFU CMKLR1 (11741424_a_at) / Fold change /veh CMKLR1 (11741424_a_at) / RFU LOC101060620 /// MAPK8IP1 (11723275_at) / Fold change /veh LOC101060620 /// MAPK8IP1 (11723275_at) / RFU SPTSSB (11747773_x_at) / Fold change /veh SPTSSB (11747773_x_at) / RFU PRSS12 (11739890_at) / Fold change /veh PRSS12 (11739890_at) / RFU BIN1 (11741810_x_at) / Fold change /veh BIN1 (11741810_x_at) / RFU WNT11 (11732464_a_at) / Fold change /veh WNT11 (11732464_a_at) / RFU C10orf10 (11716521_a_at) / Fold change /veh C10orf10 (11716521_a_at) / RFU C5orf56 (11738089_at) / Fold change /veh C5orf56 (11738089_at) / RFU CYB561 (11721691_x_at) / Fold change /veh CYB561 (11721691_x_at) / RFU ANKRD19P (11752326_a_at) / Fold change /veh ANKRD19P (11752326_a_at) / RFU OR2T12 /// OR2T33 /// OR2T8 (11738714_s_at) / Fold change /veh OR2T12 /// OR2T33 /// OR2T8 (11738714_s_at) / RFU VCAN (11748164_a_at) / Fold change /veh VCAN (11748164_a_at) / RFU JSRP1 (11732532_at) / Fold change /veh JSRP1 (11732532_at) / RFU KRTAP10-11 (11738290_x_at) / Fold change /veh KRTAP10-11 (11738290_x_at) / RFU MYO3A (11730013_a_at) / Fold change /veh MYO3A (11730013_a_at) / RFU EBF3 (11725865_a_at) / Fold change /veh EBF3 (11725865_a_at) / RFU CAMK2N1 (11719241_x_at) / Fold change /veh CAMK2N1 (11719241_x_at) / RFU C5orf56 (11738088_a_at) / Fold change /veh C5orf56 (11738088_a_at) / RFU OLFML3 (11715873_a_at) / Fold change /veh OLFML3 (11715873_a_at) / RFU LOC100653217 /// NTM (11731650_a_at) / Fold change /veh LOC100653217 /// NTM (11731650_a_at) / RFU MAPK11 (11762145_a_at) / Fold change /veh MAPK11 (11762145_a_at) / RFU FIZ1 (11724087_x_at) / Fold change /veh FIZ1 (11724087_x_at) / RFU OASL (11726364_x_at) / Fold change /veh OASL (11726364_x_at) / RFU SOX15 (11748057_x_at) / Fold change /veh SOX15 (11748057_x_at) / RFU CD79A (11719716_a_at) / Fold change /veh CD79A (11719716_a_at) / RFU HIST1H1D (11736915_at) / Fold change /veh HIST1H1D (11736915_at) / RFU CASKIN2 (11723855_a_at) / Fold change /veh CASKIN2 (11723855_a_at) / RFU LOC730098 (11760151_x_at) / Fold change /veh LOC730098 (11760151_x_at) / RFU OR4N2 (11742367_at) / Fold change /veh OR4N2 (11742367_at) / RFU PRRT2 (11749266_a_at) / Fold change /veh PRRT2 (11749266_a_at) / RFU SNX32 (11753110_a_at) / Fold change /veh SNX32 (11753110_a_at) / RFU CDHR5 (11726645_a_at) / Fold change /veh CDHR5 (11726645_a_at) / RFU RCAN1 (11760418_a_at) / Fold change /veh RCAN1 (11760418_a_at) / RFU FAM167A (11723789_a_at) / Fold change /veh FAM167A (11723789_a_at) / RFU FAM26E (11764081_at) / Fold change /veh FAM26E (11764081_at) / RFU ISYNA1 (11749810_s_at) / Fold change /veh ISYNA1 (11749810_s_at) / RFU ACY1 (11761880_at) / Fold change /veh ACY1 (11761880_at) / RFU 11764098_at / Fold change /veh 11764098_at / RFU SAMD14 (11745864_x_at) / Fold change /veh SAMD14 (11745864_x_at) / RFU NPB (11741838_a_at) / Fold change /veh NPB (11741838_a_at) / RFU TMPRSS6 (11731388_a_at) / Fold change /veh TMPRSS6 (11731388_a_at) / RFU KRTAP10-2 (11738614_at) / Fold change /veh KRTAP10-2 (11738614_at) / RFU ARHGAP8 /// PRR5-ARHGAP8 (11727945_x_at) / Fold change /veh ARHGAP8 /// PRR5-ARHGAP8 (11727945_x_at) / RFU KRTAP5-7 /// NADSYN1 (11734609_at) / Fold change /veh KRTAP5-7 /// NADSYN1 (11734609_at) / RFU RASL12 (11751679_a_at) / Fold change /veh RASL12 (11751679_a_at) / RFU CDKN2B (11736163_a_at) / Fold change /veh CDKN2B (11736163_a_at) / RFU PRF1 (11729649_at) / Fold change /veh PRF1 (11729649_at) / RFU, ZNF638 /// ZNF638-IT1 / Fold change vs veh, ZNF638 /// ZNF638-IT1 / RFU, PANK3 / Fold change vs veh, PANK3 / RFU, SH3YL1 / Fold change vs veh, SH3YL1 / RFU, ZEB2 / Fold change vs veh, ZEB2 / RFU, NRIP1 / Fold change vs veh, NRIP1 / RFU, PTTG1IP / Fold change vs veh, PTTG1IP / RFU, CAPN2 / Fold change vs veh, CAPN2 / RFU, MED14 / Fold change vs veh, MED14 / RFU, SNORA58 / Fold change vs veh, SNORA58 / RFU, C1orf63 / Fold change vs veh, C1orf63 / RFU, LRRFIP1 / Fold change vs veh, LRRFIP1 / RFU, NDUFAF7 / Fold change vs veh, NDUFAF7 / RFU, SLC12A2 / Fold change vs veh, SLC12A2 / RFU, IBTK / Fold change vs veh, IBTK / RFU, ESF1 / Fold change vs veh, ESF1 / Fold change vs veh, TMEM50B / RFU, TAOK1 / Fold change vs veh, TAOK1 / RFU, ACBD3 / Fold change vs veh, ACBD3 / RFU, TMA16 / Fold change vs veh, TMA16 / RFU, RWDD3 / Fold change vs veh, RWDD3 / RFU, BCAT1 / Fold change vs veh, BCAT1 / RFU, EDEM3 / Fold change vs veh, EDEM3 / RFU, TMEM33 / Fold change vs veh, TMEM33 / RFU, WDR75 / Fold change vs veh, WDR75 / RFU, AHCTF1 / Fold change vs veh, AHCTF1 / RFU, TFRC / Fold change vs veh, TFRC / RFU, ZDHHC17 / Fold change vs veh, ZDHHC17 / RFU, NOM1 / Fold change vs veh, NOM1 / RFU, ARL8B / Fold change vs veh, ARL8B / RFU, ZBTB11 / Fold change vs veh, ZBTB11 / RFU, TAMM41 / Fold change vs veh, TAMM41 / RFU, KIAA1704 /// LOC100996395 / Fold change vs veh, KIAA1704 /// LOC100996395 / RFU, ING1 / Fold change vs veh, ING1 / RFU, TRMT61B / Fold change vs veh, TRMT61B / RFU, FUBP3 / Fold change vs veh, FUBP3 / RFU, TP53 / Fold change vs veh, TP53 / RFU, TNKS2 / Fold change vs veh, TNKS2 / RFU, ZFP14 / Fold change vs veh, ZFP14 / RFU, ACTR2 / Fold change vs veh, ACTR2 / RFU, PPP3R1 / Fold change vs veh, PPP3R1 / RFU, PIK3R1 / Fold change vs veh, PIK3R1 / RFU, HNRNPA1 / Fold change vs veh, HNRNPA1 / RFU, RNF170 / Fold change vs veh, RNF170 / RFU, ZNF28 / Fold change vs veh, ZNF28 / RFU, RNGTT / Fold change vs veh, RNGTT / RFU, OGT / Fold change vs veh, OGT / RFU, BRD1 / Fold change vs veh, BRD1 / RFU, MARS / Fold change vs veh, MARS / RFU, ZNF655 / Fold change vs veh, ZNF655 / RFU, FAHD1 / Fold change vs veh, FAHD1 / RFU, BDP1 / Fold change vs veh, BDP1 / RFU, LRRCC1 / Fold change vs veh, LRRCC1 / RFU, ARID1A / Fold change vs veh, ARID1A / RFU, ZNF146 / Fold change vs veh, ZNF146 / RFU, ZNF330 / Fold change vs veh, ZNF330 / RFU, GPN3 / Fold change vs veh, GPN3 / RFU, C9orf123 / Fold change vs veh, C9orf123 / RFU, N4BP2L2 / Fold change vs veh, N4BP2L2 / RFU, ARFIP1 / Fold change vs veh, ARFIP1 / RFU, FAM179B / Fold change vs veh, FAM179B / RFU, BCL10 / Fold change vs veh, BCL10 / RFU, UHRF1BP1L / Fold change vs veh, UHRF1BP1L / RFU, BET1 / Fold change vs veh, BET1 / RFU, CNOT2 / Fold change vs veh, CNOT2 / RFU, ZNF268 / Fold change vs veh, ZNF268 / Fold change vs veh, ZNF507 / RFU, DGCR2 / Fold change vs veh, DGCR2 / RFU, WDSUB1 / Fold change vs veh, WDSUB1 / Fold change vs veh, HSP90B1 /// MIR3652 / RFU, ADSS / Fold change vs veh, ADSS / RFU, GK / Fold change vs veh, GK / RFU, ZNF148 / Fold change vs veh, ZNF148 / RFU, TAF9 / Fold change vs veh, TAF9 / RFU, SLC1A5 / Fold change vs veh, SLC1A5 / RFU, SLMO2 / Fold change vs veh, SLMO2 / RFU, ABCC4 / Fold change vs veh, ABCC4 / RFU, LOC101060439 /// RAP1B / Fold change vs veh, LOC101060439 /// RAP1B / RFU, RFX7 / Fold change vs veh, RFX7 / RFU, GTPBP10 / Fold change vs veh, GTPBP10 / RFU, CNEP1R1 / Fold change vs veh, CNEP1R1 / RFU, BIVM-ERCC5 /// ERCC5 / Fold change vs veh, BIVM-ERCC5 /// ERCC5 / RFU, ILF3 / Fold change vs veh, ILF3 / RFU 11762660_at / Fold change /veh 11762660_at / RFU VCAN (11757783_s_at) / Fold change /veh VCAN (11757783_s_at) / RFU DDX43 (11728927_at) / Fold change /veh DDX43 (11728927_at) / RFU KRT8 (11758188_x_at) / Fold change /veh KRT8 (11758188_x_at) / RFU NKD1 (11759106_at) / Fold change /veh NKD1 (11759106_at) / RFU SRD5A1 (11742802_a_at) / Fold change /veh SRD5A1 (11742802_a_at) / RFU TPSAB1 /// TPSB2 (11721975_s_at) / Fold change /veh TPSAB1 /// TPSB2 (11721975_s_at) / RFU GSTM3 (11746129_a_at) / Fold change /veh GSTM3 (11746129_a_at) / RFU IL23R (11737362_x_at) / Fold change /veh IL23R (11737362_x_at) / RFU TMEM51 (11727254_a_at) / Fold change /veh TMEM51 (11727254_a_at) / RFU PIWIL2 (11732686_x_at) / Fold change /veh PIWIL2 (11732686_x_at) / RFU ORM1 (11744905_x_at) / Fold change /veh ORM1 (11744905_x_at) / RFU CCDC152 (11743942_at) / Fold change /veh CCDC152 (11743942_at) / RFU ECM1 (11717891_a_at) / Fold change /veh ECM1 (11717891_a_at) / RFU IL23R (11748794_a_at) / Fold change /veh IL23R (11748794_a_at) / RFU TNFAIP8L3 (11732012_x_at) / Fold change /veh TNFAIP8L3 (11732012_x_at) / RFU MBOAT4 (11741988_at) / Fold change /veh MBOAT4 (11741988_at) / RFU 11764193_at / Fold change /veh 11764193_at / RFU TMEM53 (11763286_at) / Fold change /veh TMEM53 (11763286_at) / RFU MAGEB2 (11727129_at) / Fold change /veh MAGEB2 (11727129_at) / RFU TMEM200A (11744735_a_at) / Fold change /veh TMEM200A (11744735_a_at) / RFU CCDC152 (11751479_a_at) / Fold change /veh CCDC152 (11751479_a_at) / RFU FAM211A (11726209_a_at) / Fold change /veh FAM211A (11726209_a_at) / RFU RGS16 (11746705_a_at) / Fold change /veh RGS16 (11746705_a_at) / RFU VCAN (11755009_s_at) / Fold change /veh VCAN (11755009_s_at) / RFU RHOB (11743442_s_at) / Fold change /veh RHOB (11743442_s_at) / RFU RGS16 (11720943_a_at) / Fold change /veh RGS16 (11720943_a_at) / RFU RGS16 (11720944_at) / Fold change /veh RGS16 (11720944_at) / RFU, VPS4B / Fold change vs veh, VPS4B / RFU, CREB1 / Fold change vs veh, CREB1 / RFU, DNAJC13 / Fold change vs veh, DNAJC13 / RFU, GNAQ / Fold change vs veh, GNAQ / RFU, CDK5R1 / Fold change vs veh, CDK5R1 / RFU, ZRANB3 / Fold change vs veh, ZRANB3 / RFU, CUL4A / Fold change vs veh, CUL4A / RFU, CCNY / Fold change vs veh, CCNY / RFU, UFL1 / Fold change vs veh, UFL1 / RFU, COG3 / Fold change vs veh, COG3 / RFU, DIAPH2 / Fold change vs veh, DIAPH2 / RFU, SKA2 / Fold change vs veh, SKA2 / RFU, AFF3 / Fold change vs veh, AFF3 / RFU, LMF1 / Fold change vs veh, LMF1 / RFU, IPO11 / Fold change vs veh, IPO11 / RFU, DFFB / Fold change vs veh, DFFB / RFU, FOXP1 / Fold change vs veh, FOXP1 / RFU, CARD8 / Fold change vs veh, CARD8 / RFU, STRN3 / Fold change vs veh, STRN3 / RFU, ADK / Fold change vs veh, ADK / RFU, RASSF2 / Fold change vs veh, RASSF2 / RFU, WIPF1 / Fold change vs veh, WIPF1 / RFU, LARP1B / Fold change vs veh, LARP1B / RFU, RASA1 / Fold change vs veh, RASA1 / RFU, RB1 / Fold change vs veh, RB1 / RFU, PPFIA1 / Fold change vs veh, PPFIA1 / RFU, MAT2A / Fold change vs veh, MAT2A / RFU, CCT5 / Fold change vs veh, CCT5 / RFU, WDR92 / Fold change vs veh, WDR92 / RFU, CUX1 / Fold change vs veh, CUX1 / RFU, TTC7A / Fold change vs veh, TTC7A / RFU, TMEM135 / Fold change vs veh, TMEM135 / RFU, DEPTOR / Fold change vs veh, DEPTOR / RFU, CPM / Fold change vs veh, CPM / RFU, DNAJB6 / Fold change vs veh, DNAJB6 / RFU, CACNA2D3 / Fold change vs veh, CACNA2D3 / RFU, DTX4 / Fold change vs veh, DTX4 / RFU, TFCP2 / Fold change vs veh, TFCP2 / RFU, GMCL1 /// GMCL1P1 / Fold change vs veh, GMCL1 /// GMCL1P1 / RFU, AEBP2 / Fold change vs veh, AEBP2 / RFU, SNHG1 /// SNORD22 /// SNORD25 /// SNORD26 /// SNORD27 /// SNORD28 /// SNORD29 /// SNORD31 / Fold change vs veh, SNHG1 /// SNORD22 /// SNORD25 /// SNORD26 /// SNORD27 /// SNORD28 /// SNORD29 /// SNORD31 / Fold change (Aza/veh), C12orf56 (ProbeSet 11735607_a_at) / Fold change (ACY-1035/veh), C12orf56 (ProbeSet 11735607_a_at) / Fold change (Aza/veh), FGFR1OP (ProbeSet 11751329_s_at) / Fold change (ACY-1035/veh), FGFR1OP (ProbeSet 11751329_s_at) / Fold change (Aza/veh), VPS36 (ProbeSet 11739960_a_at) / Fold change (ACY-1035/veh), VPS36 (ProbeSet 11739960_a_at) / RFU SYPL1 (11715823_x_at) / Fold change /veh SYPL1 (11715823_x_at) / RFU IGFBP7 (11715501_s_at) / Fold change /veh IGFBP7 (11715501_s_at) / RFU REEP3 (11722064_at) / Fold change /veh REEP3 (11722064_at) / RFU IGLL1 (11728026_x_at) / Fold change /veh IGLL1 (11728026_x_at): dose or concentration left out as unconfirmed
Details: ProbeSet 11732281_s_at; LIST D

## Nc1ccc(-c2cccs2)cc1NC(=O)c1ccc2c(c1)cc(C1CC1)n2CCN1CCOCC1 [ACY-1035]
  RFU, FOXP1: 243.86 RFU
